Data on one sequence can be found in patent US6448224B1, “Antibiotics and methods of using the same” (priority 1998, dated 2002).

For one assay, the system named is Lyt 4-4. Kind of assay: Chain morphology of Lyt 4-4. In kind it is cell-based, Streptococcus pneumoniae. The following applies: 0.5 mM peptide in the medium. The text has this: Loss of chain formation is a measure of antibacterial activity independent of autolysin.
Strains of pneumococcus that are tolerant to penicillin, such as Lyt 4-4, grow in long chains as compared to the diplococcal morphology of wild type pneumococci. FIG. 6A illustrates these chains, which extend to 30-50 bacteria in length.

A further assay relates to RR/HK mutants. The assay is described as follows: Antibacterial activity of the peptide in mutants: growth inhibition, RR/HK mutants. In kind it is cell-based, S. pneumoniae. To be noted: peptide added exogenously. From the text: (§1) To test this hypothesis the ability of the peptide having the amino acid sequence of SEQ ID NO:2 to maintain antibacterial activity in the mutants was examined. […] Furthermore, bacteria which are tolerant by virtue of phenotypic tolerance due to slow growth rate or mutations in genes other than the RR/HK will be susceptible to the antibacterial effect of the peptide.

Assay [1] deals with clinical isolate A144. The assay is described as follows: Cell viability (CFU/ml) of clinical isolate A144 one hour after addition. In kind it is cell-based, pneumococcus. The following applies: 10×MIC penicillin, 10×MIC vancomycin or 0.4 mM peptide. From the text:
(§2) Tolerance to penicillin occurs in bacteria that fail to trigger autolysins in response to the drug. […] This is a mechanism of resistance to these drugs and is a serious emerging medical problem. […] However, one pneumococcal strain that fails to lyse and dies slowly in response to both penicillin and vancomycin is the clinical isolate A144. This combination of traits makes A144 recalcitrant to therapy. FIG. 8 compares the activity of penicillin, vancomycin, and the peptide against a classical sensitive strain, R6, and the tolerant strain A144. […] In contrast, strain A144 loses only 0.5 logs of viability in the same time period for all three therapies. […] Thereafter the bacteria grew more slowly than untreated controls.

Assay [2] concerns Lyt-4-4 strain of Streptococcus pneumoniae (loss of LytA activity). The assay is described as follows: Growth curve (OD 620 nm) of autolysin deficient strain Lyt 4-4. To be noted: 0.1 mM peptide; absence of autolytic activity. In kind it is cell-based. As for the experimental part:
The addition of the additives were made at time “0” hours. The strain of bacteria cultured was the Lyt-4-4 strain of Streptococcus pneumoniae which harbors a mutation leading to the loss of LytA activity. The peptide having the amino acid sequence of SEQ ID NO:2 was added as indicated at a concentration of 0.1 mM. Lyt-4-4 lacks active autolysin LytA and is therefore tolerant to penicillin treatment.
(§3) Cell growth curves were performed in the presence or absence of the test reagents as specified. In short, samples were prepared as follows: 1 ml of a pneumococcus culture was placed into 10 ml of prewarmed Semisynthetic (C+Y) medium. The optical density (OD) of the bacteria was monitored at 620 nm until an OD of approximately 0.1 was reached. At this point the test reagents were administered to the samples. The cells were cultured for up to 11 hours at 37° Celsius, and the OD at 620 nm was monitored every hour. A decrease in OD 620 is indicative of cell lysis, an increase is indicative of bacterial growth. No change in optical density indicates growth inhibition.
This antibacterial effect was also demonstrable in bacteria mutated so as to prevent autolysis by point mutation in the autolysin, as in the autolysin deficient strain Lyt 4-4.

Assay [3] has as its system pneumococcal strain R6. The assay is described as follows: Cell viability (CFU/ml) of R6, plating on blood agar. To be noted: 0.1 mM peptide. In kind it is cell-based, Streptococcus pneumoniae. On the procedure:
(§4) The peptide having amino acid sequence SEQ ID NO:2 was chemically synthesized and tested for growth inhibiting, killing and lytic activity in Streptococcus pneumoniae cultures. To characterize the antibacterial activity of the peptide, pneumococcal strain R6 which is sensitive to penicillin was exposed to 0.1 mM of the peptide having the amino acid sequence of SEQ ID NO:2 at an optical density of 0.01 (bacterial density of 3×10^6 cfu/ml). Bacterial growth as measured by optical density was followed for 11 hours and viability was assessed by plating on blood agar. […] Four hours after the start of the experiment, the control strain grew from 3×10^6 to 1.2×10^7 cfu/ml. In contrast, four hours after addition of the peptide, the viable bacterial number decreased from 3×10^6 to 3×10^4 CFU/ml (10^3-fold lower than the control).
as §2

The test system of the next assay is mutant in ORF WI. The assay is described as follows: Antibacterial activity of the peptide in mutants: growth inhibition, ORF W1 mutant. In kind it is cell-based, S. pneumoniae. To be noted: peptide added from the outside.
From the text: as §1

The subject of assay [4] is pneumococcal strain R6. The assay is described as follows: Cell growth curves (OD 620 nm) of R6 cultures with or without test reagents. In kind it is cell-based, Streptococcus pneumoniae. As for the experimental part:
as §3, §4
The fact that the peptide is active in the range below 1 μg/ml places the potency of its antibacterial effect in the same range as conventional antibiotics.
R6 with no peptide was the control and underwent exponential growth.

Assay [5] concerns pneumococcus R6, non-growing. Kind of assay: Lysis of R6 cells under starvation conditions (medium lacking lysine). In kind it is cell-based. The following applies: 10×MIC penicillin and/or 0.5 mM peptide. The text has this:
When bacteria grow slowly or stop growing due to nutrient deprivation, they become tolerant to antibiotics of all classes. […] This prolongs the course of antibiotics needed to treat these infections. For instance, many weeks of therapy are required to treat endocarditis and osteomyelitis secondary to slowly growing bacteria. An in vitro example of phenotypic tolerance is shown in FIG. 10 where pneumococcus R6 has been transferred at time 0 to a medium lacking the essential amino acid lysine. Penicillin was added 5 min after the transfer. […] This same response is seen with the peptide.

The subject of assay [6] is clinical isolate A144. The assay is described as follows: Growth of clinical isolate A144. In kind it is cell-based, pneumococcus. To be noted: 0.1 mM peptide added early in the growth cycle; for 4 hours.
From the text: as §2

The subject of the next assay is HK mutant strain Van S. Kind of assay: Lysis of HK mutant VanS cells. To be noted: 10×MIC penicillin and/or 0.5 mM peptide. In kind it is cell-based, pneumococcus. As for the experimental part: FIGS. 11A-11B show the effects of 10×MIC of penicillin and/or 0.5 mM of the peptide having the amino acid sequence of SEQ ID NO:2 on the lysis of clinical isolate F79 cells (FIG. 11A) and HK mutant VanS cells (FIG. 11B).
F79 is a natural isolate of pneumococcus with mutations in the HK and the ABC transporter genes as determined by SSCP (see Example 11). This strain is tolerant to penicillin and vancomycin.

Entries after “also recorded” stand apart in the source; their conditions may differ.

Turning to “MRKEFHNVLSSGQLLADKRPARDYN (listed as Streptococcus pneumoniae) [Peptide 1]”, the results for the “chain morphology of Lyt 4-4” value in the assay on Lyt 4-4 (listed as SEQ ID NO.2) and in the assay on Lyt 4-4 (listed as the peptide) were “dissolution of the chains” and “reversion of the chains to diplococci”, respectively. For the same sequence, the “growth inhibition of the RR/HK mutants” value in the assay on RR/HK mutants is listed as “did not function to inhibit the growth”. In addition, in the assay with clinical isolate A144 [1], the “loss of viability of A144 within one hour” value stood at 0.5 logs. In addition, in [2], the “bactericidal activity in strain Lyt 4-4” value is listed as “demonstrable”. Also, the “viable bacterial number lower than the control” value in the assay with pneumococcal strain R6 [3] (four hours) is recorded as 10^3 fold. Also, the “killing of R6 (FIG. 2B)” value with pneumococcal strain R6 [3] (listed as SEQ ID NO:2) is “kills the bacteria without substantial cell lysis occurring; also recorded: rapidly killed”. The “viable bacterial number four hours after addition of the peptide” value in the assay with pneumococcal strain R6 [3] (start 3×10^6, control grew to 1.2×10^7 cfu/ml) is reported as 3×10^4 CFU/ml. In the assay on mutant in ORF WI, the “growth inhibition of the mutant in ORF W1” value is “not able to inhibit growth”. For the same sequence, the “ability to inhibit R6 growth (FIG. 5)” value in the assay on pneumococcal strain R6 [4] (100 μM peptide added to growing R6 at OD 620 nm of 0.1) is “significant delay in the onset of bacterial growth”. Further, the lysis result with pneumococcal strain R6 [4] (0.1 mM peptide, R6, followed for 11 hours) is “No lysis was detected”. Besides, in the assay with pneumococcal strain R6 [4] (0.1 mM peptide, R6 at optical density 0.01 (3×10^6 cfu/ml), followed for 11 hours), the “growth of the bacteria (optical density)” value is listed as “completely inhibited growth”. Also, the “minimum effective concentration (MEC)” value fell in the range of 0.15 to 0.3 µg/mL with pneumococcal strain R6 [4] (R6, converted with molecular weight 2940) and 50 to 100 nM in the assay on pneumococcal strain R6 [4] (R6, optical density of the culture over 4 hours). For the same sequence, the “dose response of antibacterial activity” value with pneumococcal strain R6 [4] (R6, various amounts of peptide, 4 hours) is given as “dose dependent antibacterial activity”. Further, the “lysis response of non-growing R6” value in [5] is listed as “same response”. Besides, the “growth of strain A144” value in the assay with clinical isolate A144 [6] is recorded as “significantly inhibits the growth”. Moreover, the “lysis / tolerance of strain Van S” value in the assay on HK mutant strain Van S is recorded as “not responsive”.
